In publication PMC2810100 (Journal of medicinal chemistry, 2009):

Key:
CpIMPDH = details: cited from earlier work
recombinant CpIMPDH = biological target: T1, recombinant CpIMPDH (Cryptosporidium parvum, UniProt Q8T6T2); type: biochemical; details: without BSA
T1 sequence (Q8T6T2 1-400): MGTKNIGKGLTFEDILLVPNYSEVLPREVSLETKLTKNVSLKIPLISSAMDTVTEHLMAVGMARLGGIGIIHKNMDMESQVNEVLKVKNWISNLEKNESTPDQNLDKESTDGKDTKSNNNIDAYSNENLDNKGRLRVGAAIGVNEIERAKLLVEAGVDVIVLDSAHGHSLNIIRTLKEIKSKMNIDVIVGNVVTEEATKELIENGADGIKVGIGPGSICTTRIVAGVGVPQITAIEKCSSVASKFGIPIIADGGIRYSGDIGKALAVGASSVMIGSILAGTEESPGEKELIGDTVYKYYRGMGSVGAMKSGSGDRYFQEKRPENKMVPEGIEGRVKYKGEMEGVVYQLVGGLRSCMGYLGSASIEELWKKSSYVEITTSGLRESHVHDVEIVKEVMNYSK

| Compound | Mode of inhibition with respect to 1 (IMP) (CpIMPDH) | Mode of inhibition with respect to NAD+ (CpIMPDH) | Fold more potent than the (S)-enantiomer (33) (recombinant CpIMPDH) |
| --- | --- | --- | --- |
| CC(Oc1ccccc1)C(=O)Nc1ccc(Cl)cc1 (stereo not drawn) [Compound 5] | uncompetitive inhibition | noncompetitive (mixed) inhibition | – |
| C[C@@H](Oc1ccnc2ccccc12)c1cn(-c2ccc(Cl)c(Cl)c2)nn1 [Compound 32, (R)-4-(1-(1-(3,4-dichlorophenyl)-1H-1,2,3-triazol-4-yl)ethoxy)quinoline] | – | – | ~ 14 fold |
